From patent US8367584B2, “Naphthalene isoxazoline compounds for control of invertebrate pests” (E.I. du Pont de Nemours and Company, priority 2007, dated 2013)

Tests used:
Format in all cases: in vivo
[1] = system: fall armyworm (Spodoptera frugiperda); experiment: Test B: control of fall armyworm on corn (maize) plant, foliar spray; conditions: sprayed at 50 ppm; 1-day-old larvae on corn (maize) plant; three replicates
Procedure: (§1) Test compounds were formulated using a solution containing 10% acetone, 90% water and 300 ppm X^77™ Spreader Lo-Foam Formula non-ionic surfactant containing alkylarylpolyoxyethylene, free fatty acids, glycols and isopropanol (Loveland Industries, Inc. Greeley, Colo., USA). The formulated compounds were applied in 1 mL of liquid through a SUJ2 atomizer nozzle with 1/8 JJ custom body (Spraying Systems Co. Wheaton, Ill., USA) positioned 1.27 cm (0.5 inches) above the top of each test unit. All experimental compounds in this test were sprayed at 50 ppm, and the test was replicated three times. After spraying of the formulated test compound, each test unit was allowed to dry for 1 h and then a black, screened cap was placed on top. The test units were held for 6 days in a growth chamber at 25° C. and 70% relative humidity. Plant feeding damage was then visually assessed based on foliage consumed and a pest mortality rating was also counted and calculated for each test unit.
For evaluating control of fall armyworm (Spodoptera frugiperda), the test unit consisted of a small open container with a 4-5-day-old corn (maize) plant inside. This was pre-infested (using a core sampler) with 10-15 1-day-old larvae on a piece of insect diet. Test compounds were formulated and sprayed at 50 ppm as described for Test A, and the test was replicated three times. After spraying, the test units were maintained in a growth chamber and then the control efficacy was rated for each test unit as described for Test A.

[2] = system: potato leafhopper (Empoasca fabae); experiment: Test C: control of potato leafhopper through contact and/or systemic means on Soleil bean plant; conditions: 144 h, sprayed at 250 ppm, adults on Soleil bean plant, held 6 days at 19-21° C., three replicates, read-out: control efficacy: mortality
Procedure: as §1
For evaluating control of potato leafhopper (Empoasca fabae) through contact and/or systemic means, the test unit consisted of a small open container with a 5-6-day-old Soleil bean plant (primary leaves emerged) inside. White sand was added to the top of the soil and one of the primary leaves was excised prior to application. Test compounds were formulated and sprayed as described for Test A. All experimental compounds in these tests were sprayed at 250 ppm, and the test was replicated three times. After spraying, the test units were allowed to dry for 1 hour before they were post-infested with 5 potato leafhoppers (18-21-day-old adults). A black, screened cap was placed on the top of the cylinder. The test units were held for 6 days in a growth chamber at 19-21° C. and 50-70% relative humidity. The control efficacy of each test unit was then visually assessed by the insect mortality.

[3] = system: diamondback moth (Plutella xylostella); experiment: Test A: control of diamondback moth on radish plant, foliar spray; conditions: sprayed at 50 ppm; neonate larvae on radish plant; held 6 days at 25° C.; three replicates
From the text: For evaluating control of diamondback moth (Plutella xylostella), the test unit consisted of a small open container with a 12-14-day-old radish plant inside. This was pre-infested with about 50 neonate larvae that were dispensed into the test unit via corn-cob grits using a bazooka inoculator. The larvae moved onto the test plant after being dispensed into the test unit.
as §1

[4] = system: green peach aphid (Myzus persicae); experiment: Test E: control of green peach aphid through contact and/or systemic means on radish plant; conditions: 144 h, sprayed at 250 ppm, aphids on radish plant, held 6 days at 19-21° C., three replicates, read-out: control efficacy: mortality
Procedure: Test compounds were formulated using a solution containing 10% acetone, 90% water and 300 ppm X^77™ Spreader Lo-Foam Formula non-ionic surfactant containing alkylarylpolyoxyethylene, free fatty acids, glycols and isopropanol (Loveland Industries, Inc. Greeley, Colo., USA). The formulated compounds were applied in 1 mL of liquid through a SUJ2 atomizer nozzle with 1/8 JJ custom body (Spraying Systems Co. Wheaton, Ill., USA) positioned 1.27 cm (0.5 inches) above the top of each test unit. All experimental compounds in this test were sprayed at 50 ppm, and the test was replicated three times. After spraying of the formulated test compound, each test unit was allowed to dry for 1 h and then a black, screened cap was placed on top. The test units were held for 6 days in a growth chamber at 25° C. and 70% relative humidity. Plant feeding damage was then visually assessed based on foliage consumed and a pest mortality rating was also counted and calculated for each test unit. […]
Test compounds were formulated and sprayed as described for Test A. All experimental compounds in these tests were sprayed at 250 ppm, and the test was replicated three times. […] Each test unit was then visually assessed for insect mortality.

[5] = system: silverleaf whitefly (Bemisia tabaci); experiment: Test F: control of silverleaf whitefly on cotton plant; conditions: 144 h, sprayed at 250 ppm, 2nd and 3rd instar nymphs on cotton plant, held 6 days, three replicates, read-out: control efficacy: mortality
Procedure: For evaluating control of silverleaf whitefly (Bemisia tabaci), the test unit consisted of a 14-21-day-old cotton plant grown in Redi-earth® media (Scotts Co.) with at least two true leaves infested with 2nd and 3rd instar nymphs on the underside of the leaves.
Test compounds were formulated in no more than 2 mL of acetone and then diluted with water to 25-30 mL. The formulated compounds were applied using a flat fan air-assisted nozzle (Spraying Systems 122440) at 10 psi (69 kPa). Plants were sprayed to run-off on a turntable sprayer (patent publication EP-1110617-A1). All experimental compounds in this screen were sprayed at 250 ppm, and the test was replicated three times. After spraying of the test compound, the test units were held for 6 days in a growth chamber at 50-60% relative humidity and 28° C. daytime and 24° C. nighttime temperature. Then the leaves were removed and then dead and live nymphs were counted to calculate percent mortality.

[6] = system: western flower thrip (Frankliniella occidentalis); experiment: Test D: control of western flower thrip through contact and/or systemic means on Soleil bean plant; conditions: sprayed at 250 ppm; adult thrips on Soleil bean plant; held 6 days at 25° C.; three replicates
Procedure: as §1
For evaluating control of the western flower thrip (Frankliniella occidentalis) through contact and/or systemic means, the test unit consisted of a small open container with a 5-7-day-old Soleil Bean plant inside. […] A mortality rating was assessed along with a plant damage rating for each test unit.

| SMILES | control efficacy (20% or less feeding damage or 80% or more mortality) [1] | mortality at 250 ppm [2] | control efficacy (20% or less feeding damage or 80% or more mortality) [3] | mortality at 250 ppm [4] | mortality at 250 ppm [5] | control efficacy (20% or less feeding damage or 80% or more mortality) [6] |
| --- | --- | --- | --- | --- | --- | --- |
| O=C(NCc1ccc(C2=NOC(c3cc(Cl)cc(Cl)c3)(C(F)(F)F)C2)c2ccccc12)C1CC1 (stereo not shown) [Compound 1, N-[[4-[5-(3,5-dichlorophenyl)-4,5-dihydro-5-(trifluoromethyl)-3-isoxazolyl]-1-naphthalenyl]methyl]cyclopropanecarboxamide] | very good to excellent levels of control efficacy | ≥ 80% | very good to excellent levels of control efficacy |  |  |  |
| CC(C)C(=O)NCc1ccc(C2=NOC(c3cc(Cl)cc(Cl)c3)(C(F)(F)F)C2)c2ccccc12 (stereo not shown) [Compound 2] | very good to excellent levels of control efficacy | ≥ 80% | very good to excellent levels of control efficacy | ≥ 80% | ≥ 80% |  |
| N#CC(NC(=O)C1CC1)c1ccc(C2=NOC(c3cc(Cl)cc(Cl)c3)(C(F)(F)F)C2)c2ccccc12 (stereo not shown) [Compound 3] |  |  | very good to excellent levels of control efficacy |  |  | very good to excellent levels of control efficacy |
| CC(C)C(=O)NC(C)c1ccc(C2=NOC(c3cc(C(F)(F)F)cc(C(F)(F)F)c3)(C(F)(F)F)C2)c2ccccc12 (stereo not shown) [Compound 4] |  |  | very good to excellent levels of control efficacy |  |  |  |
| CC(C)C(=O)NCc1ccc(C2=NOC(c3cc(Cl)cc(C(F)(F)F)c3)(C(F)(F)F)C2)c2ccccc12 (stereo not shown) [Compound 5] | very good to excellent levels of control efficacy | ≥ 80% | very good to excellent levels of control efficacy | ≥ 80% | ≥ 80% |  |
| O=C(NCc1ccc(C2=NOC(c3cc(Cl)cc(C(F)(F)F)c3)(C(F)(F)F)C2)c2ccccc12)C1CC1 (stereo not shown) [Compound 6] | very good to excellent levels of control efficacy | ≥ 80% | very good to excellent levels of control efficacy |  |  |  |
